Laboratory results: ChEMBL document CHEMBL1135260 (Bioorg Med Chem Lett, 2002)

Molecular target: T1, Neuropeptide Y receptor type 5 (Homo sapiens, UniProt Q15761)
T1 sequence (Q15761 whole entry): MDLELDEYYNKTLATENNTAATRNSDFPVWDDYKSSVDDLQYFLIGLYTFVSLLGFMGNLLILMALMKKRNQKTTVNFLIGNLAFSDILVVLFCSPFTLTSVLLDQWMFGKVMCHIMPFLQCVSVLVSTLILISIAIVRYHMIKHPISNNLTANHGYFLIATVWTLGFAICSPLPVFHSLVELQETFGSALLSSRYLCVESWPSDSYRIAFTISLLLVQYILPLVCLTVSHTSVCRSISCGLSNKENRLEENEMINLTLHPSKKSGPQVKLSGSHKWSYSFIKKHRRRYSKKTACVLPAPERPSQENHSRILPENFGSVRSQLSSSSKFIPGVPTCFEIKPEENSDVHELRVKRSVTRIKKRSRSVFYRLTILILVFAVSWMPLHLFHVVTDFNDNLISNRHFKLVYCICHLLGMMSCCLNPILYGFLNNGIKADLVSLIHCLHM
Experiment: Concentration that inhibited 50% of binding of 125 I -PYY ligand to human Neuropeptide Y receptor type 5
Assay type: single protein

Row | Compound | IC50 [nM]
1 | c1ccc2c(c1)CCCc1[nH]c(-c3c[nH]cn3)nc1-2 | 570
2 | Cc1[nH]c(-c2ccccc2)nc1-c1cccnc1 [FR-79620] | 427
3 | Fc1ccc2c(c1)-c1nc(-c3cccnc3)[nH]c1CCC2 | 6.4
4 | COc1ccc2c(c1)-c1nc(-c3ccccn3)[nH]c1CCC2 | 110
5 | c1ccc(-c2nc3c([nH]2)CCOc2ccccc2-3)cc1 | 6100
6 | COc1ccc2c(c1)-c1nc(-c3ccccc3)[nH]c1CC2 | 52
7 | c1ccc(-c2nc3c([nH]2)-c2ccccc2CCC3)nc1 | 110
